# According to patent US20240384268A1, “Oligonucleotides” (Hudson Institute of Medical Research, priority 2021, published 2024):
# d = 2'-deoxy (DNA); m = 2'-O-methyl
# Molecular target: cGAS (Homo sapiens, UniProt Q8N884)
# Test: ISD70-driven IP-10 production in HT-29 cells, ELISA
# Format: cell-based
# Parameters: endogenous in cells
# Settings: 187.5 nM ASO overnight, ISD70 24 h
# Chain of cGAS (Q8N884 whole entry): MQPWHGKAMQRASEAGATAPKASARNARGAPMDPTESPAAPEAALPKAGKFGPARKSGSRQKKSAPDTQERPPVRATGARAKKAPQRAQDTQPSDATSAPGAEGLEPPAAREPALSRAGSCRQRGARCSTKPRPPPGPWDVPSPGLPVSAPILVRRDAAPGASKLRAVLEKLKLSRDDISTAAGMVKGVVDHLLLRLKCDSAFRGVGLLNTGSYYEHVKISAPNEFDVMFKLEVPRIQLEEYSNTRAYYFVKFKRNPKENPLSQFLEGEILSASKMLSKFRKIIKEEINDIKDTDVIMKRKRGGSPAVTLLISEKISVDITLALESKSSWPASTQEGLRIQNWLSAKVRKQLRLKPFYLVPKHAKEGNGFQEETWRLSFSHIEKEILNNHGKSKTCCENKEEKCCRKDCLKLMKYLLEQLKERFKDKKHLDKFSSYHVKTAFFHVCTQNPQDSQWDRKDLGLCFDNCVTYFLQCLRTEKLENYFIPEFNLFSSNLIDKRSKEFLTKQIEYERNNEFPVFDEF
substance,measurement,value
"mG*mA*mU*mG*mG*T*T*C*C*A*G*T*C*C*C*mU*mC*mU*mU*mC (GAUGGTTCCAGTCCCUCUUC; antisense; sugars from the 5' end m5 d10 m5, all phosphorothioate, methylation of C not given here) [[LINC-PINT]1497.1]",reduction of ISD70-dependent IP-10 production,25%
